Laboratory results: patent publication US10104893B2, “Pesticidally active polycyclic derivatives with sulfur substituted five membered ring heterocyles” (Syngenta Participations AG, priority 2015, dated 2018)
Where two headings read alike, the source gives them in different places.

Assays:
[1] = tested on: Diabrotica balteata (Corn Root Worm); test: Insecticidal action against Diabrotica balteata; type: in vivo; details: 96 h, read-out: effect in at least one of the two categories (mortality or growth inhibition); for percent effect (mortality or growth inhibition) at 200 ppm: application rate of 200 ppm, maize sprouts, L2 larvae, 4 days after infestation
Protocol: Example B2: Insecticidal Action Against Diabrotica balteata (Corn Root Worm)
Maize sprouts placed onto an agar layer in 24-well microtiter plates were treated with aqueous test solutions prepared from 10′000 ppm DMSO stock solutions by spraying. After drying, the plates were infested with L2 larvae (6 to 10 per well). The samples were assessed for mortality and growth inhibition in comparison to untreated samples 4 days after infestation.

[2] = tested on: Euschistus heros (Neotropical Brown Stink Bug); test: Insecticidal action against Euschistus heros; type: in vivo; details: 120 h, read-out: effect in at least one of the two categories (mortality or growth inhibition); for percent effect (mortality or growth inhibition) at 200 ppm: application rate of 200 ppm, soybean leaves, N2 nymphs, 5 days after infestation
Protocol: Example B3: Insecticidal Action Against Euschistus heros (Neotropical Brown Stink Bug)
Soybean leaves on agar in 24-well microtiter plates were sprayed with aqueous test solutions prepared from 10′000 ppm DMSO stock solutions. After drying the leaves were infested with N2 nymphs. The samples were assessed for mortality and growth inhibition in comparison to untreated samples 5 days after infestation.

[3] = tested on: Spodoptera littoralis (Egyptian Cotton Leaf Worm); test: Insecticidal action against Spodoptera littoralis, sprayed cotton leaf discs; type: in vivo; details: foliar, 72 h, read-out: control (mortality, anti-feeding effect, growth inhibition)
Protocol: Example B8: Insecticidal Action Against Spodoptera littoralis (Egyptian Cotton Leaf Worm)
Cotton leaf discs were placed onto agar in 24-well microtiter plates and sprayed with aqueous test solutions prepared from 10′000 ppm DMSO stock solutions. After drying the leaf discs were infested with five L1 larvae. The samples were assessed for mortality, anti-feeding effect, and growth inhibition in comparison to untreated samples 3 days after infestation. Control of Spodoptera littoralis by a test sample is given when at least one of the categories mortality, anti-feeding effect, and growth inhibition is higher than the untreated sample.

[4] = tested on: Plutella xylostella (Diamond Back Moth); test: Insecticidal action against Plutella xylostella; type: in vivo; details: 120 h, read-out: effect in at least one of the two categories (mortality or growth inhibition); for percent effect (mortality or growth inhibition) at 200 ppm: application rate of 200 ppm, artificial diet, L2 larvae, 5 days after infestation
Protocol: Example B7: Insecticidal Action Against Plutella xylostella (Diamond Back Moth)
24-well microtiter plates with artificial diet were treated with aqueous test solutions prepared from 10′000 ppm DMSO stock solutions by pipetting. After drying, the plates were infested with L2 larvae (10 to 15 per well). The samples were assessed for mortality and growth inhibition in comparison to untreated samples 5 days after infestation.

[5] = tested on: Myzus persicae (Green Peach Aphid); test: Insecticidal action against Myzus persicae: feeding/contact activity; type: in vivo; details: foliar, 144 h
Protocol: Example B4: Insecticidal Action Against Myzus persicae (Green Peach Aphid): Feeding/Contact Activity
Sunflower leaf discs were placed onto agar in a 24-well microtiter plate and sprayed with aqueous test solutions prepared from 10′000 ppm DMSO stock solutions. After drying, the leaf discs were infested with an aphid population of mixed ages. The samples were assessed for mortality 6 days after infestation.

[6] = application rate of 200 ppm, cotton leaf discs, L1 larvae, 3 days after infestation

| melting point [°C] | SMILES | percent effect (mortality or growth inhibition) at 200 ppm [1] [%] | percent effect (mortality or growth inhibition) at 200 ppm [2] [%] | mortality at 200 ppm [3, 6] [%] | percent effect (mortality or growth inhibition) at 200 ppm [4] [%] | further results |
| --- | --- | --- | --- | --- | --- | --- |
| 194 to 195 | CCn1c(C(F)(F)F)cc2nc(-c3sc(-c4cccc(F)c4)cc3S(=O)(=O)CC)n(C)c2c1=O |  |  |  |  |  |
|  | CCS(=O)(=O)c1sc(-c2ccc(Cl)cc2)nc1-c1nc2cc(C(F)(F)F)n(C)c(=O)c2n1C [A48, 2-[2-(4-chlorophenyl)-5-ethylsulfonyl-thiazol-4-yl]-3,5-dimethyl-6-(trifluoromethyl)imidazo[4,5-c]pyridin-4-one] | ≥ 80 | ≥ 80 | ≥ 80 | ≥ 80 |  |
| 180 to 182 | CCn1c(C(F)(F)F)cc2nc(-c3sc(-c4cc(F)cc(F)c4)cc3S(=O)(=O)CC)n(C)c2c1=O |  |  |  |  |  |
|  | CCSc1cc(-c2ccc(Cl)cc2)sc1-c1nc2cc(C(F)(F)F)n(CC)c(=O)c2n1C [A1, 2-[5-(4-chlorophenyl)-3-ethylsulfanyl-2-thienyl]-5-ethyl-3-methyl-6-(trifluoromethyl)-3aH-imidazo[4,5-c]pyridin-4-one] | ≥ 80 |  |  | ≥ 80 |  |
|  | CCn1c(C(F)(F)F)cc2nc(-c3sc(-c4ccc(Cl)cc4)cc3S(=O)(=O)CC)n(C)c2c1=O [A2, 2-[5-(4-chlorophenyl)-3-ethylsulfonyl-2-thienyl]-5-ethyl-3-methyl-6-(trifluoromethyl)-3aH-imidazo[4,5-c]pyridin-4-one] |  |  |  |  | percent control (mortality or growth inhibition) at 200 ppm [1]: ≥ 80%; percent control (mortality or growth inhibition) at 200 ppm ([2]; in Glycine max): ≥ 80%; mortality at 200 ppm [5]: ≥ 80%; mortality at 200 ppm [3]: ≥ 80%; percent control (mortality or growth inhibition) at 200 ppm [4]: ≥ 80% |
|  | CCS(=O)(=O)c1cc(I)sc1-c1nc2cc(C(F)(F)F)n(C)c(=O)c2n1C [A44, 2-(3-ethylsulfonyl-5-iodo-2-thienyl)-3,5-dimethyl-6-(trifluoromethyl)imidazo[4,5-c]pyridin-4-one] | ≥ 80 | ≥ 80 | ≥ 80 | ≥ 80 |  |
